Laboratory results: patent EP1228063B1, “SUBSTITUTED PYRIDINES AND PYRIDAZINES WITH ANGIOGENESIS INHIBITING ACTIVITY” (BAYER CORPORATION, priority 1999, dated 2001)

Biological target: T1, KDR kinase domain (Homo sapiens, UniProt P35968)
T1 construct: The cytosolic kinase domain of KDR kinase was expressed as a 6His fusion protein in Sf9 insect cells; 6His; made in house; host or cells: Sf9 insect cells
Assay: KDR Assay (ELISA of poly(Glu4;Tyr1) phosphorylation)
Format: biochemical
Conditions: 3.3 µM ATP, 60 minutes at room temperature
Protocol: The cytosolic kinase domain of KDR kinase was expressed as a 6His fusion protein in Sf9 insect cells. The KDR kinase domain fusion protein was purified over a Ni++ chelating column. Ninety-six well ELISA plates were coated with 5 µg poly(Glu4;Tyr1) (Sigma Chemical Co., St Louis, MO) in 100 µl HEPES buffer (20 mM HEPES, pH 7.5, 150 mM NaCl, 0.02% Thimerosal) at 4° overnight. Before use, the plate was washed with HEPES, NaCl buffer and the plates were blocked with 1% BSA, 0.1% Tween 20 in HEPES, NaCl buffer.
Test compounds were serially diluted in 100% DMSO from 4 mM to 0.12 µM in half-log dilutions. These dilutions were further diluted twenty fold in H2O to obtain compound solutions in 5% DMSO. Following loading of the assay plate with 85 µl of assay buffer (20 mM HEPES, pH 7.5, 100 mM KCI, 10 mM MgCl2, 3 mM MnCl2, 0.05% glycerol, 0.005% Triton X-100, 1 mM -mercaptoethanol, with or without 3.3 µM ATP), 5 µl of the diluted compounds were added to a final assay volume of 100 µl. Final concentrations were between 10 µM, and 0.3 nM in 0.25% DMSO. The assay was initiated by the addition of 10µl (30 ng) of KDR kinase domain.
The assay was incubated with test compound or vehicle alone with gentle agitation at room temperature for 60 minutes. The wells were washed and phosphotyrosines (PY) were probed with an anti-phosphotyrosine (PY), mAb clone 4G10 (Upstate Biotechnology, Lake Placid, NY). PY/anti-PY complexes were detected with an anti-mouse IgG/HRP conjugate (Amersham International plc, Buckinghamshire, England). Phosphotyrosine was quantitated by incubating with 100 µl 3, 3', 5, 5' tetramethylbenzidine solution (Kirkegaard and Perry, TMB Microwell 1 Component peroxidase substrate). Color development was arrested by the addition of 100 µl 1% HCl-based stop solution (Kirkegaard and Perry, TMB I Component Stop Solution).
Optical densities were determined spectrophotometrically at 450 nm in a 96-well plate reader, SpectraMax 250 (Molecular Devices). Background (no ATP in assay) OD values were subtracted from all ODs and the percent inhibition was calculated according to the equation: % Inhibition = ((OD(vehicle control)-OD(with compound)) × 100)/(OD(vehicle control)-OD(no ATP added)) [formula]

T1 sequence (P35968 834-1162 limits assumed): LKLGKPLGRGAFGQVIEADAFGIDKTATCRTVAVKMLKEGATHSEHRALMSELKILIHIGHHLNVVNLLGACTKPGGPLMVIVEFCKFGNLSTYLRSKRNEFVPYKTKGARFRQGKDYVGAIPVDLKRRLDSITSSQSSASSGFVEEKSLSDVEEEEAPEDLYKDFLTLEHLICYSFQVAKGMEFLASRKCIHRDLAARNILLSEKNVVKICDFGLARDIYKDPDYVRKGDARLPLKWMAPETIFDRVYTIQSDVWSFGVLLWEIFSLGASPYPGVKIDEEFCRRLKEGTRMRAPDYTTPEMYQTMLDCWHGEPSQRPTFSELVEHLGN

Structure (SMILES)	IC50 [nM]
c1ccc2c(Nc3ccc4ncsc4c3)nnc(Nc3ccc4ncsc4c3)c2c1 [Example 93]	≤ 100
CNC(=O)c1cc(COc2nnc(Nc3ccc(N4CCOCC4)cc3)c3ccoc23)ccn1 [Example 46]	100 to 1000
OCc1cc(COc2nnc(Nc3ccc(Cl)cc3)c3ccoc23)ccn1 [Example 64]	100 to 1000
Oc1ccc(Nc2nnc(OCc3ccncc3)c3occc23)cc1 [Example 58]	100 to 1000
Cc1ccc(Nc2nnc(Nc3ccc4ncsc4c3)c3sccc23)cc1F [Example 79]	100 to 1000
c1ccc2c(Nc3ccc4ncsc4c3)ncc(Cc3ccncc3)c2c1 [Example 5, 1-(benzothiazol-6-ylamino)-4-(4-pyridylmethyl)-isoquinoline]	100 to 1000
c1cc2c(Nc3ccc4[nH]ncc4c3)nnc(Nc3ccc4[nH]ncc4c3)c2s1 [Example 27]	100 to 1000
Clc1ccc(Nc2nnc(Nc3ccc4ncsc4c3)c3occc23)cc1 [Example 48]	100 to 1000
Clc1ccc(Nc2nnc(Nc3ccc4nc[nH]c4c3)c3ccccc23)cc1 [Example 95]	100 to 1000
CNC(=O)c1cc(COc2nnc(Nc3ccccc3OC)c3ccoc23)ccn1 [Example 50]	100 to 1000
CN(C)CCNC(=O)c1cc(COc2nnc(Nc3ccc(Cl)cc3)c3ccoc23)ccn1 [Example 82A]	100 to 1000
c1cc2c(Nc3ccc4ncsc4c3)nnc(Nc3ccc4ncsc4c3)c2o1 [Example 28]	100 to 1000
c1ccc2c(Nc3ccc4ncsc4c3)ncc(Sc3ccncc3)c2c1 [Example 3, 1-(benzothiazol-6-ylamino)-4-(4-pyridylthio)isoquinolin]	100 to 1000
CCN(c1ccc(Nc2nnc(Nc3ccc4ncsc4c3)c3ccccc23)cc1)C(C)C [Example 100]	100 to 1000
Cc1ccc(Nc2nnc(Nc3ccc4ncsc4c3)c3ccccc23)cc1F [Example 104]	≤ 100
O=C(c1cc(COc2nnc(Nc3ccc(Cl)cc3)c3ccoc23)ccn1)N1CCOCC1 [Example 61]	100 to 1000
CNC(=O)c1cc(COc2nnc(Nc3ccc(F)c(Cl)c3)c3ccoc23)ccn1 [Example 36]	100 to 1000
COc1ccc(Nc2nnc(OCc3ccncc3)c3occc23)cc1 [Example 21, 4-(4-methoxyphenylamino)-7-(4-pyridylmethoxy)furo-[2,3-d]pyridazine]	100 to 1000
CNC(=O)c1cc(COc2nnc(Nc3ccc(N(C)C(C)=O)cc3)c3ccoc23)ccn1 [Example 45]	100 to 1000
CNC(=O)c1cc(COc2nnc(Nc3ccc(F)cc3)c3ccsc23)ccn1 [Example 67]	100 to 1000
CNC(=O)c1cc(COc2nnc(Nc3ccc4[nH]ncc4c3)c3ccoc23)ccn1 [Example 55]	100 to 1000
c1ccc2c(Nc3ccc4ncsc4c3)nnc(Nc3ccc(N4CCCCC4)cc3)c2c1 [Example 99]	100 to 1000
CNC(=O)c1cc(COc2nnc(Nc3cccc(Cl)c3)c3ccoc23)ccn1 [Example 35]	100 to 1000
c1nc2ccc(Nc3nnc(Nc4ccc5c(c4)CCC5)c4ccsc34)cc2s1 [Example 18, 4-(indan-5-ylamino)-7-(benzothiazol-6-ylamino)thieno-[2,3-d]pyridazine]	≤ 100

Biological target: T2, NIH3T3 cells expressing the full length KDR receptor (Homo sapiens, UniProt P35968)
T2 construct: NIH3T3 cells expressing the full length KDR receptor; expressed in transfected cells; host or cells: NIH3T3 cells (G418 selection)
T2 sequence (P35968 20-1356): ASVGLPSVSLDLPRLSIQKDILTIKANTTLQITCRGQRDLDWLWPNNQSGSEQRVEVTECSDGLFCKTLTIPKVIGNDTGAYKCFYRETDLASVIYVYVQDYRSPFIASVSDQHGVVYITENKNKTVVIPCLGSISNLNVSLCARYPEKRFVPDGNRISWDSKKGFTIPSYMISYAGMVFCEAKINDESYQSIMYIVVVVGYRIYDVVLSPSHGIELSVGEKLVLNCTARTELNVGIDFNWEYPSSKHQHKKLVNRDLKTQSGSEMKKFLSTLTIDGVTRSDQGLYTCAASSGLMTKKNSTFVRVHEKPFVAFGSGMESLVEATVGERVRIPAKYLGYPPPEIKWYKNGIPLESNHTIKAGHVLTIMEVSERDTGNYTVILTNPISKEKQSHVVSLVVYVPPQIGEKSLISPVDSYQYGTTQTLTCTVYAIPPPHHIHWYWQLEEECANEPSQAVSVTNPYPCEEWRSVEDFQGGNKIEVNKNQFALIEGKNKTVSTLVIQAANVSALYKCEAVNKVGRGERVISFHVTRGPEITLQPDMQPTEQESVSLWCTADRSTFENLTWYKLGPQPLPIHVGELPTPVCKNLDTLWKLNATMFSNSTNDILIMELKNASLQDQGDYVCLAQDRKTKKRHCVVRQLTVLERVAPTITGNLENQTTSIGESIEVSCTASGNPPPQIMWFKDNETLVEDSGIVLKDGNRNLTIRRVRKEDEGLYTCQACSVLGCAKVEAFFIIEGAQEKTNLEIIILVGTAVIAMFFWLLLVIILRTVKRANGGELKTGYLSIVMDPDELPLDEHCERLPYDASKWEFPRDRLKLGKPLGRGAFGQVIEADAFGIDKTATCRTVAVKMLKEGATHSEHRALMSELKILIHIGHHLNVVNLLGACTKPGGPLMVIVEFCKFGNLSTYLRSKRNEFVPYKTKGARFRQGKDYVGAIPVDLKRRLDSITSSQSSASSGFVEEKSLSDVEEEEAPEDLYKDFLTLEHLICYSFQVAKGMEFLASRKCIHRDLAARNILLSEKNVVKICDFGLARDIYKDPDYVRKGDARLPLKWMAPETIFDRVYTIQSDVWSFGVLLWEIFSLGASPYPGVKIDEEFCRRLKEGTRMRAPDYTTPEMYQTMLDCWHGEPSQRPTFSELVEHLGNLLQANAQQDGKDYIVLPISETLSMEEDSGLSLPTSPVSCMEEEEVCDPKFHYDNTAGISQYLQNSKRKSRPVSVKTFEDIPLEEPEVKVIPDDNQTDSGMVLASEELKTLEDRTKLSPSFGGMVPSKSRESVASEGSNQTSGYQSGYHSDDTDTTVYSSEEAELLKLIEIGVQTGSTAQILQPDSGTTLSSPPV
Assay: Cell mechanistic assay - Inhibition of 3T3 KDR phosphorylation
Format: cell-based
Conditions: VEGF (30 ng / ml) stimulated KDR phosphorylation in NIH3T3 cells, 30 minutes preincubation
Protocol: NIH3T3 cells expressing the full length KDR receptor were grown in DMEM (Life Technologies, Inc., Grand Island, NY) supplemented with 10% newborn calf serum, low glucose, 25 mM /L sodium pyruvate, pyridoxine hydrochloride and 0.2 mg/ ml of G418 (Life Technologies Inc., Grand Island, NY). The cells were maintained in collagen I-coated T75 flasks (Becton Dickinson Labware, Bedford, MA) in a humidified 5% CO2 atmosphere at 37°C.
Fifteen thousand cells were plated into each well of a collagen 1-coated 96-well plate in the DMEM growth medium. Six hours later, the cells were washed and the medium was replaced with DMEM without serum. After overnight culture to quiesce the cells, the medium was replaced by Dulbecco's phosphate-buffered saline (Life Technologies Inc., Grand Island, NY) with 0.1 % bovine albumin (Sigma Chemical Co., St Louis, MO). After adding various concentrations (0-300 nM) of test compounds to the cells in 1% final concentration of DMSO, the cells were incubated at room temperature for 30 minutes. The cells were then treated with VEGF (30 ng / ml) for 10 minutes at room temperature. Following VEGF stimulation, the buffer was removed and the cells were lysed by addition of 150 µl of extraction buffer (50 mM Tris, pH 7.8, supplemented with 10% glycerol, 50 mM BGP, 2 mM EDTA, 10 mM NaF, 0.5 mM NaVO4, and 0.3% TX-100) at 4°C for 30 minutes.
To assess receptor phosphorylation, 100 microliters of each cell lysate was added to the wells of an ELISA plate precoated with 300 ng of antibody C20 (Santa Cruz Biotechnology, Inc., Santa Cruz , CA). Following a 60-minute incubation, the plate was washed and bound KDR was probed for phosphotyrosine using an anti-phosphotyrosine mAb clone 4G10 (Upstate Biotechnology, Lake Placid, NY). The plate was washed and wells were incubated with anti-mouse IgG/HRP conjugate (Amersham International plc, Buckinghamshire, England) for 60 minutes. Wells were washed and phosphotyrosine was quantitated by addition of 100 µl per well of 3,3',5,5' tetramethylbenzidine (Kirkegaard and Perry, TMB Microwell 1 Component peroxidase substrate) solution. Color development was arrested by the addition of 100 µl 1% HCl based stop solution (Kirkegaard and Perry, TMB 1 Component Stop Solution).
Optical densities (OD) were determined spectrophotometrically at 450 nm in a 96-well plate reader (SpectraMax 250, Molecular Devices). Background (no VEGF added) OD values were subtracted from all ODs and percent inhibition was calculated according to the equation: % Inhibition = ((OD(VEGF control)-OD(with test compound)) × 100)/(OD(VEGF control)-OD(no VEGF added)) [formula]
IC50s were determined on some of the exemplary materials with a least squares analysis program using compound concentration versus percent inhibition. Compounds that have IC50 ≤ 20 nM in this assay include those of Examples 2, 6, 10, 11, 14, 23, 96, 101, 102, 103, 104, 105. Compounds that have IC50 values between 20 nM and 50 nM include those of examples 1, 4, 8, 9, 12, 13, 17, 24, 93, 98. Compounds that have IC50 values between 50 nM and 400 nM include those of examples 97, 99, and 100.

Structure (SMILES)	IC50 [nM]
c1ccc2c(Nc3ccc4ncsc4c3)nnc(Nc3ccc4ncsc4c3)c2c1 [Example 93]	20 to 50
Brc1ccc2c(c1)CCN2c1nnc(Nc2ccc3ncsc3c2)c2ccccc12 [Example 97]	50 to 400
Clc1ccc(Nc2ncc(Cc3ccncc3)c3ccccc23)cc1 [Example 4, 1-(4-chlorophenylamino)-4-(4-pyridylmethyl)isoquinoline]	20 to 50
Clc1ccc(Nc2nnc(Nc3ccc4ncsc4c3)c3sccc23)cc1 [Example 17, 4-(4-chlorophenylamino)-7-(benzothiazol-6-ylamino)thieno[2,3-d]pyridazine]	20 to 50
Clc1ccc(Nc2ncc(Sc3ccncc3)c3ccccc23)cc1 [Example 1, 1-(4-chlorophenylamino)-4-(4-pyridylthio)isoquinolinc]	20 to 50
NC(=O)c1cc(Cc2cnc(Nc3ccc(Cl)cc3)c3ccccc23)ccn1 [Example 12, 1-(4-chlorophenylamino)-4-(2-aminocarbonyl-4-pyridylmethyl)isoquinolin]	20 to 50
CCN(c1ccc(Nc2nnc(Nc3ccc4ncsc4c3)c3ccccc23)cc1)C(C)C [Example 100]	50 to 400
Cc1ccc(Nc2nnc(Nc3ccc4ncsc4c3)c3ccccc23)cc1F [Example 104]	≤ 20
FC1(F)Oc2ccc(Nc3nnc(Nc4ccc5ncsc5c4)c4ccccc34)cc2O1 [Example 98]	20 to 50
CNC(=O)c1cc(Cc2cnc(Nc3ccc(Cl)cc3)c3ccccc23)ccn1 [Example 13, 1-(4-chlorophenylamino)-4-(2-methylaminocarbonyl-4-pyridylmethyl)isoquinoline]	20 to 50
c1ccc2c(Nc3ccc4ncsc4c3)nnc(Nc3ccc(N4CCCCC4)cc3)c2c1 [Example 99]	50 to 400
